# Test results reported in patent publication US12600715B2, “Soluble guanylate cyclate activators for treating systemic sclerosis” (Boehringer Ingelheim International GmbH, priority 2022, dated 2026).
# Entries after “also recorded” stand apart in the source; their conditions may differ. Read-outs that look alike come from different tables or passages of the source.
# Experiments:
# [1] = system: platelet-rich plasma (PRP) from healthy donor volunteers; test: Activation of PRP by ADP and CXCL4 detection by ELISA; assay type: cell-based, human; conditions: for ADP-induced CXCL4 production: PRP of 10 donors
# Procedure: • Compound 114 (sample ID: 30295026, batch: 5) • EX0076637 (sample ID: 17810950, batch: 5) • Nintedanib esilate (Boehringer Ingelheim, Manufacture #67653, lot #1078235) • EX0000076 (sample ID: 15614118, batch: 1) • Blood from healthy donor volunteers • Plastic blood collection tubes with sodium citrate (BD biosciences, 363083) • 50 ml conical tube (Corning, 430828) • BSA solution, 30% in saline, fatty acid free, aseptically filled (Sigma, A9205) • ADP (Sigma, 01905-250MG-F) • Tyrode's buffer (Sigma, T2397) • HEPES (Gibco, 15630-080) • DMSO (Sigma, D2650) • 1 ml deep well plate (Thermo Scientific, 260251) • Sterile 0.22 um PVDF filter plate (Millipore, MAGVS2210) • 96 well microplate (Thermo Scientific, 249946) • CXCL4 ELISA kit (Abcam, ab189573 and R&D systems, DPF40)
# Buffer preparation: HEPES-Tyrode BSA buffer: Tyrode's buffer supplemented with 0.35% BSA and 5 mM HEPES.
# Generating platelet-rich plasma (PRP): Blood is collected from healthy donor volunteers, into plastic sodium citrate tubes. The first two collected tubes are discarded. The remaining blood is processed within 30 mins of blood drawing. The blood is poured into 50 ml conical tubes without exceeding 35 ml per tube and centrifuged at 200×g for 16 minutes at room temperature with acceleration set at half of maximum speed and deceleration off. After centrifugation, the top layer (PRP) is carefully transferred to a new tube by avoiding the buffy coat. The PRP is rested at room temperature for 5-15 minutes. The PRP is then ready to use for experiment as described in protocol below.
# (§1) Preparation of Compound: 5.2 mg of Compound 114 is dissolved in […] of 100% DMSO at a concentration of 20 mM. The compound solution is then diluted to 10 mM in 100% DMSO. 10 mM of the compound solution is then diluted to 1 mM and 100 μM in 100% DMSO and then secondarily diluted to 100 μM, 10 μM, and 1 μM in HEPES-Tyrode BSA buffer, making 10× stock solutions.
# as §1, with “Preparation of Compound 114 and EX 76637: 5.2 mg” for “Preparation of Compound: 5.2 mg”, “of 20 mM. 2.3 mg of EX 76637 is dissolved in 109 μl of 100% DMSO at a concentration of 50 mM. The” for “of 20 mM. The”, “and […] in 100%” for “and 100 μM in 100%”
# Preparation of nintedanib: 2.9 mg of nintedanib is dissolved in 446.3 μl of 100% DMSO at a concentration of 10 mM. The compound solution is then diluted to 100 μM in 100% DMSO. 100 μM of the compound solution is then diluted to […] in HEPES-Tyrode BSA buffer, making 10× stock solutions.
# Preparation of EX 00000776 (MMF): 2.3 mg of EX 00000776 is dissolved in 530.5 μl of 100% DMSO at a concentration of 10 mM. The compound solution is then diluted to 5 mM in 100% DMSO. 5 mM of the compound solution is then diluted to 50 µM in HEPES-Tyrode BSA buffer, making 10× stock solutions.
# ADP is dissolved in distilled water at concentration of 100 mM. 100 mM ADP are further diluted in HEPES-Tyrode BSA buffer to 10 mM and then secondarily diluted to 100 μM in HEPES-Tyrode BSA buffer, making a 10× stock.
# Eighty or forty microliters of PRP is added into a well of a 1 ml deep well plate containing 560 μl or 280 μl of HEPES-Tyrode BSA buffer. Eighty or forty microliters of the 10× compound solution is added per well and incubated at 37° C./5% CO2 for 30 mins prior to addition of ADP. Eighty or forty microliters of 100 μM ADP is added per well and the plate incubated at 37° C./5% CO2 for 5 mins. After 5 minutes of incubation, 300 microliters per well of stimulated PRP is transferred to a sterile 0.22 um PVDF 96-well filter plate. A 96 well microplate is placed under the filter plate to collect supernatant after centrifugation at 1100 rpm for 5 mins. […]
# [2] = system: primary human microvascular endothelial cells; test: Hypoxia assay: hypoxia induced TGFβ2 production (MSD ELISA); assay type: cell-based
# Procedure: The assay uses the following materials and reagents: • Human dermal microvascular endothelial cells are obtained from (Lonza, 2543). • All experiments are performed with cells between passage 4 and passage 8. […]
# Culturing endothelial cells: Dermal endothelial cells from each of the indicated donors are grown in T175 flasks with normal culturing media in 37° C./5% CO2 incubator. […] Cells are counted and plated into new T175 for further expansion or plated for the experiment as described in the protocol below. […]
# • Day 0: Cells are trypsinized, counted and plated such that each well contains 8×10^3 cells and 100 μl of media and put in an incubator overnight (37° C.) • Day 1: Media is aspirated and replaced with basal media left at 37° C. overnight-24 hours • Day 2: Basal media is replaced with 90 μL of fresh basal media. […]
# After treatment plates are left in 37° C. […] Supernatant is collected and TGFβ2 μlevels are measured using MSD ELISA.
# Dermal microvascular endothelial cells from three normal donors are plated and grown to confluence. […] Cells and supernatants are collected after 48 hours and TGFβ2 μlevels are measured by MSD-ELISA. MSD plates are read using the MSD QuickPlex SQ 120 Instrument. […]
# [3] = system: bleomycin-induced dermal fibrosis; assay type: in vivo
# [4] = system: bleomycin-induced pulmonary fibrosis; test: Bleomycin-induced pulmonary fibrosis, therapeutic dosing; assay type: in vivo, C57Bl/6 mice
# Procedure: Compounds and formulation: Compound: Compound 114 (sample ID 30295026), batch 5 and EX00076637 (EX76637/riociguat), sample ID 17810950, batch 5 are both dissolved in Methylcellulose solution. The concentration is 10 mg/kg, 3 mg/kg and 1 mg/kg in a volume of 0.1 ml p.o. Nintedanib ethanesulfonate is prepared freshly every second day. The concentration is 60 mg/kg in a volume of 0.1 ml p.o. Hydroxyproline assay: The amount of collagen protein in skin samples is determined via hydroxyproline assay. After digestion of full skin thickness punch biopsies (Ø 3 mm) derived from the upper back in 6 M HCl for three hours at 120° C., the pH of the samples is adjusted to 6 with 6 M NaOH. For lungs, the middle lobe is analyzed. Afterwards, 0.06 M chloramine T is added to each sample and incubated for 20 min at room temperature. Next, 3.15 M perchloric acid and 20% p-dimethylaminobenzaldehyde are added and samples are incubated for additional 20 min at 60° C. The absorbance is determined at 557 nm with a Spectra MAX 190 microplate spectrophotometer using a standard curve generated with purified type I collagen (Sigma-Aldrich). In the model of bleomycin-induced lung fibrosis, fibrosis is induced by a single intratracheal injection of 50 μl bleomycin at day 0. Mice injected with equal volumes of 0.9% NaCl served as controls. The outcome is analyzed after 28 days. Treatment is started at day 15 post intratracheal installation of bleomycin and thus at a timepoint, when fibrosis is already preestablished. […] Histological evaluation of pulmonary fibrosis: Whole lungs are excised, fixed in 4% formalin for 6 h and embedded in paraffin. […] are cut and stained with Sirius Red. Images are captured using a Hamamatsu nano sumo S60 slide scanner microscope (Hamamatsu, Herrsching am Ammersee, Germany). Histological changes of pulmonary fibrosis are quantified by Ashcroft Scoring. The analysis is performed in a blinded manner. […] Statistics: All data are presented as median ±range, and differences between the groups are tested for their statistical significance by Mann-Whitney U non-parametric test for non-related samples.
# [5] = 60 mg/kg qd for the last three weeks, vs bleomycin/vehicle mice
# [6] = treatment initiated two weeks after instillation of bleomycin until end of experiment
structure (smiles),measurement,setting,value
CCOc1c(C(=O)O)cnn1-c1cccc(-c2cccc(C)c2OCc2ccc3c(c2C)CCN(C2CCOCC2)C3)n1 [Compound 114],ADP-induced CXCL4 production,"[1]; 0.1 μM, 10 μM ADP",reduced ADP-induced CXCL4 production in 9 out of 10 donors
same,ADP-induced CXCL4 production,"[1]; 1 μM and 10 μM, 10 μM ADP",attenuated the ADP-induced CXCL4 production in all 10 donors
same,"ADP-induced CXCL4 production, percentage of Max of all donors","[1]; 10 μM, 1 μM, 0.1 μM, 10 μM ADP, compared to ADP/DMSO",significantly reduced ADP-induced CXCL4 production in a dose-dependent manner
same,"potency/efficacy on ADP-induced CXCL4 production relative to nintedanib, mycophenolate (MMF) and riociguat",[1]; FIG. 5,more potent/more efficacious
same,"hypoxia-driven TGFβ2 production, statistical significance of reduction","[2]; 10 μM Compound 114, hypoxia 1% O2",Statistically significant reduction
same,hypoxia-induced TGFβ2 production,"[2]; hypoxia 1% O2, 48 hrs, ODQ, supernatant, cells from 3 donors",inhibits hypoxia-induced TGFβ2 levels; also recorded: reduced hypoxia-driven TGFβ2 production in a concentration-dependent manner
same,bleomycin-induced dermal fibrosis,"[3]; doses of 1, 3 or 5 mg/kg for the last two weeks",also ameliorated bleomycin-induced dermal fibrosis
same,effects on dermal fibrosis compared with nintedanib,"[3]; doses of 1, 3 or 5 mg/kg vs nintedanib 60 mg/kg qd",within the range of those observed with nintedanib
same,dose-dependency of effect on dermal fibrosis,"[3]; doses of 1, 3 or 5 mg/kg, trends for dermal thickness and myofibroblast counts",no clear dose-dependency was observed
same,fibrotic readouts of pulmonary fibrosis,"[4]; doses of 1, 3 or 10 mg/kg",significantly improved the fibrotic readouts
same,dose trend for the Ashcroft score,"[4]; doses of 1, 3 or 10 mg/kg, differences did not reach statistical significance",tendency towards more pronounced effects with higher doses
COC(=O)N(C)c1c(N)nc(-c2nn(Cc3ccccc3F)c3ncccc23)nc1N [riociguat],effect on ADP-induced CXCL4 production,"[1]; doses equivalent to Compound 114, 10 μM ADP",minimal effect; also recorded: Minimal to no effect
"COC(=O)c1ccc2c(c1)NC(=O)/C2=C(\Nc1ccc(N(C)C(=O)CN2CCN(C)CC2)cc1)c1ccccc1 [nintedanib, Nintedanib ethanesulfonate]",effect on ADP-induced CXCL4 production,"[1]; standards of care, 10 μM ADP",ineffective; also recorded: Minimal to no effect
same,dermal thickness,[3]; [5],reduced
same,hydroxyproline content (skin),[3]; [5],lower
same,myofibroblast counts,[3]; [5],decreased
same,Ashcroft scores,[4]; [6],reduced
same,collagen-covered area,[4]; [6],reduced
same,hydroxyproline content (lung),[4]; [6],reduced
"COC(=O)N(C)c1c(N)nc(-c2nn(Cc3ccccc3F)c3ncccc23)nc1N [EX76637, riociguat]",bleomycin-induced dermal fibrosis,[3]; doses of 1 mg/kg,also ameliorated bleomycin-induced dermal fibrosis
same,effects on dermal fibrosis compared with Compound 114,[3]; doses of 1 mg/kg,comparable to those of Compound 114
same,bleomycin-induced pulmonary fibrosis,[4]; 1 mg/kg bid p.o.,also ameliorated bleomycin-induced pulmonary fibrosis
